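Dose response: 5 concentrations. Exposure: 48 h. Format: 96-well plates. Endpoint: linear interpolation; highest concentration if not reached. The concentration for full growth arrest is given as TGI.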
What was measured:
Test in all cases: inhibition of tumour cell growth, NCI panel, 48 h
OVCAR-5 ovarian = test system: OVCAR-5 ovarian
DU-145 prostate = test system: DU-145 prostate
TK-10 renal = test system: TK-10 renal
KM12 colon = test system: KM12 colon
NCI-H460 lung = test system: NCI-H460 lung
T-47D breast = test system: T-47D breast
COLO 205 colon = test system: COLO 205 colon
M14 melanoma = test system: M14 melanoma
OVCAR-4 ovarian = test system: OVCAR-4 ovarian
MDA-MB-231 breast = test system: MDA-MB-231 breast
CAKI-1 renal = test system: CAKI-1 renal
HCC-2998 colon = test system: HCC-2998 colon
NCI-H23 lung = test system: NCI-H23 lung
SF-295 CNS = test system: SF-295 CNS
HT29 colon = test system: HT29 colon
SNB-19 CNS = test system: SNB-19 CNS
HL-60(TB) leukemia = test system: HL-60(TB) leukemia
UACC-257 melanoma = test system: UACC-257 melanoma
EKVX NSCLC = test system: EKVX NSCLC
OVCAR-8 ovarian = test system: OVCAR-8 ovarian
UO-31 renal = test system: UO-31 renal
LOX IMVI melanoma = test system: LOX IMVI melanoma
SK-MEL-28 melanoma = test system: SK-MEL-28 melanoma
HOP-92 NSCLC = test system: HOP-92 NSCLC
K-562 leukemia = test system: K-562 leukemia
SR leukemia = test system: SR leukemia
A549 NSCLC = test system: A549 NSCLC
SNB-75 CNS = test system: SNB-75 CNS
UACC-62 melanoma = test system: UACC-62 melanoma
HCT-116 colon = test system: HCT-116 colon
786-0 renal = test system: 786-0 renal
RPMI-8226 leukemia = test system: RPMI-8226 leukemia
IGROV1 ovarian = test system: IGROV1 ovarian
SN12C renal = test system: SN12C renal
SK-MEL-2 melanoma = test system: SK-MEL-2 melanoma
MCF7 breast = test system: MCF7 breast
SK-MEL-5 melanoma = test system: SK-MEL-5 melanoma
MDA-N = test system: MDA-N
PC-3 prostate = test system: PC-3 prostate
HCT-15 colon = test system: HCT-15 colon
MDA-MB-435 = test system: MDA-MB-435
CCRF-CEM leukemia = test system: CCRF-CEM leukemia
MOLT-4 leukemia = test system: MOLT-4 leukemia
HOP-62 NSCLC = test system: HOP-62 NSCLC
SK-OV-3 ovarian = test system: SK-OV-3 ovarian
NCI/ADR-RES ovarian = test system: NCI/ADR-RES ovarian
U251 CNS = test system: U251 CNS
ACHN renal = test system: ACHN renal
HS 578T breast = test system: HS 578T breast
NCI-H226 lung = test system: NCI-H226 lung
RXF 393 renal = test system: RXF 393 renal
SF-268 CNS = test system: SF-268 CNS
A498 renal = test system: A498 renal
SW-620 colon = test system: SW-620 colon
MALME-3M melanoma = test system: MALME-3M melanoma
SF-539 CNS = test system: SF-539 CNS
NCI-H522 lung = test system: NCI-H522 lung
OVCAR-3 ovarian = test system: OVCAR-3 ovarian

## C[C@@H](c1ccccc1)N1CO[C@@]2(C#Cc3ccc4c(c3)OCO4)CCC[C@@H]12
OVCAR-5 ovarian
  TGI: 32 µM
DU-145 prostate
  TGI: 29.7 µM
TK-10 renal
  TGI: 28.8 µM
KM12 colon
  TGI: 34.7 µM
NCI-H460 lung
  TGI: 26 µM
T-47D breast
  TGI: 34 µM
COLO 205 colon
  TGI: 31.4 µM
M14 melanoma
  TGI: 31.2 µM
OVCAR-4 ovarian
  TGI: 28.4 µM
MDA-MB-231 breast
  TGI: 28.2 µM
CAKI-1 renal
  TGI: 34.6 µM
HCC-2998 colon
  TGI: 34.7 µM
NCI-H23 lung
  TGI: 28.8 µM
SF-295 CNS
  TGI: 28.1 µM
HT29 colon
  TGI: 34.6 µM
SNB-19 CNS
  TGI: 30.3 µM
HL-60(TB) leukemia
  TGI: > 100 µM
UACC-257 melanoma
  TGI: 38.2 µM
EKVX NSCLC
  TGI: 52.6 µM
OVCAR-8 ovarian
  TGI: 27 µM
UO-31 renal
  TGI: 28.1 µM
LOX IMVI melanoma
  TGI: 25.2 µM
SK-MEL-28 melanoma
  TGI: 39 µM
HOP-92 NSCLC
  TGI: 19.7 µM
K-562 leukemia
  TGI: 96.2 µM
SR leukemia
  TGI: 32.5 µM
A549 NSCLC
  TGI: 29.6 µM
SNB-75 CNS
  TGI: 27.9 µM
UACC-62 melanoma
  TGI: > 100 µM
HCT-116 colon
  TGI: 29.1 µM
786-0 renal
  TGI: 36 µM
RPMI-8226 leukemia
  TGI: 38 µM
IGROV1 ovarian
  TGI: 22.9 µM
SN12C renal
  TGI: 33.3 µM
SK-MEL-2 melanoma
  TGI: 34.3 µM
MCF7 breast
  TGI: > 100 µM
SK-MEL-5 melanoma
  TGI: 25.8 µM
MDA-N
  TGI: 37.7 µM
PC-3 prostate
  TGI: 27.1 µM
HCT-15 colon
  TGI: 27.4 µM
MDA-MB-435
  TGI: 28.2 µM
CCRF-CEM leukemia
  TGI: > 100 µM
MOLT-4 leukemia
  TGI: 48.2 µM
HOP-62 NSCLC
  TGI: 29.3 µM
SK-OV-3 ovarian
  TGI: 34.5 µM
NCI/ADR-RES ovarian
  TGI: 30.8 µM
U251 CNS
  TGI: 28.1 µM
ACHN renal
  TGI: > 100 µM
HS 578T breast
  TGI: 33.4 µM
NCI-H226 lung
  TGI: 38.6 µM
RXF 393 renal
  TGI: 24.4 µM

## NC1NCCC(=O)N1CCc1c[nH]c2ccccc12 (stereo not drawn)
OVCAR-5 ovarian
  TGI: 69.3 µM
DU-145 prostate
  TGI: 63 µM
TK-10 renal
  TGI: 51.7 µM
KM12 colon
  TGI: 29.8 µM
NCI-H460 lung
  TGI: 31.2 µM
T-47D breast
  TGI: > 100 µM
COLO 205 colon
  TGI: 32.5 µM
M14 melanoma
  TGI: 33.3 µM
OVCAR-4 ovarian
  TGI: 80.7 µM
MDA-MB-231 breast
  TGI: 34.4 µM
SF-268 CNS
  TGI: 46.4 µM
CAKI-1 renal
  TGI: 94.4 µM
HCC-2998 colon
  TGI: 35.2 µM
NCI-H23 lung
  TGI: 38.6 µM
A498 renal
  TGI: 27.9 µM
SF-295 CNS
  TGI: 64.6 µM
HT29 colon
  TGI: 82.9 µM
SNB-19 CNS
  TGI: > 100 µM
HL-60(TB) leukemia
  TGI: 44.7 µM
UACC-257 melanoma
  TGI: 32.1 µM
EKVX NSCLC
  TGI: 75.5 µM
OVCAR-8 ovarian
  TGI: 89.1 µM
UO-31 renal
  TGI: > 100 µM
LOX IMVI melanoma
  TGI: 30.2 µM
SK-MEL-28 melanoma
  TGI: 34.9 µM
HOP-92 NSCLC
  TGI: 69.5 µM
K-562 leukemia
  TGI: 51 µM
SR leukemia
  TGI: 57.7 µM
A549 NSCLC
  TGI: 69.3 µM
SNB-75 CNS
  TGI: 22.9 µM
UACC-62 melanoma
  TGI: 37.6 µM
SW-620 colon
  TGI: 42 µM
MALME-3M melanoma
  TGI: 40.1 µM
HCT-116 colon
  TGI: 26.5 µM
SF-539 CNS
  TGI: 31.5 µM
786-0 renal
  TGI: 37.6 µM
NCI-H522 lung
  TGI: > 100 µM
RPMI-8226 leukemia
  TGI: 60.3 µM
IGROV1 ovarian
  TGI: 43.1 µM
SN12C renal
  TGI: 67.6 µM
SK-MEL-2 melanoma
  TGI: 35.5 µM
MCF7 breast
  TGI: 29.2 µM
SK-MEL-5 melanoma
  TGI: 30.8 µM
MDA-N
  TGI: 34.3 µM
PC-3 prostate
  TGI: 44.1 µM
HCT-15 colon
  TGI: 65 µM
MDA-MB-435
  TGI: 30.7 µM
CCRF-CEM leukemia
  TGI: 51.9 µM
HOP-62 NSCLC
  TGI: 43.2 µM
SK-OV-3 ovarian
  TGI: > 100 µM
NCI/ADR-RES ovarian
  TGI: 69.4 µM
U251 CNS
  TGI: > 100 µM
ACHN renal
  TGI: 55.5 µM
HS 578T breast
  TGI: 55.2 µM
OVCAR-3 ovarian
  TGI: 48.4 µM
NCI-H226 lung
  TGI: 66.3 µM
RXF 393 renal
  TGI: 43.5 µM

— PubChem BioAssay (NCI)
